Tests used:
[1] = tested on: PopD-D7 M-833 resistant clone (PfSTART1 N309K); assay: Growth inhibition assay (72 h, LDH activity); format: cell-based, Plasmodium falciparum
Method in brief: (§1)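 Synchronised ring-stage 3D7-derived clones (0.3-0.6% parasitemia, 2% haematocrit) grown 72 h in compound serial dilutions, some with 0, 0.25 or 2.5 mM glucosamine. Growth read as LDH activity after freeze-thaw (Malstat/NBT, A650), normalised to DMSO and uninfected RBC; EC50 from variable-slope log(inhibitor) fit.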

[2] = tested on: PopE-F10 M-833 resistant clone (PfSTART1 N330K); assay: Growth inhibition assay (72 h, LDH activity); format: cell-based, Plasmodium falciparum
Method in brief: as §1

in vitro = conditions: human

CC(C)(Nc1ccc(Cl)c(S(=O)(=O)N2CCOCC2)c1)C(=O)Nc1ccc(F)c(Cl)c1 [W-991]
EC50 ([1]; Plasmodium falciparum, Supplementary Table 1, PopD-D7 (N309K), 72 h, read-out: EC50): > 0.2 µM
resistance of the line compared with 3D7 ([1]; PopD-D7 (N309K), Fig 4B): highly resistant
(av-uRBC) / (DMSO-uRBC) x100 ([1]; PopD-D7, 0.0762079 nM, biological replicate 1): 96.5635
(av-uRBC) / (DMSO-uRBC) x100 ([1]; PopD-D7, 0.0762079 nM, biological replicate 2): 102.6
(av-uRBC) / (DMSO-uRBC) x100 ([1]; PopD-D7, 0.0762079 nM, biological replicate 3): 87.8712
(av-uRBC) / (DMSO-uRBC) x100 ([1]; PopD-D7, 0.228624 nM, biological replicate 1): 100.291
(av-uRBC) / (DMSO-uRBC) x100 ([1]; PopD-D7, 0.228624 nM, biological replicate 2): 103.59
(av-uRBC) / (DMSO-uRBC) x100 ([1]; PopD-D7, 0.228624 nM, biological replicate 3): 90.7443
(av-uRBC) / (DMSO-uRBC) x100 ([1]; PopD-D7, 0.685871 nM, biological replicate 1): 102.374
(av-uRBC) / (DMSO-uRBC) x100 ([1]; PopD-D7, 0.685871 nM, biological replicate 2): 101.183
(av-uRBC) / (DMSO-uRBC) x100 ([1]; PopD-D7, 0.685871 nM, biological replicate 3): 89.0089
(av-uRBC) / (DMSO-uRBC) x100 ([1]; PopD-D7, 2.05761 nM, biological replicate 1): 98.4575
(av-uRBC) / (DMSO-uRBC) x100 ([1]; PopD-D7, 2.05761 nM, biological replicate 2): 102.962
(av-uRBC) / (DMSO-uRBC) x100 ([1]; PopD-D7, 2.05761 nM, biological replicate 3): 86.5214
(av-uRBC) / (DMSO-uRBC) x100 ([1]; PopD-D7, 6.17284 nM, biological replicate 1): 97.3005
(av-uRBC) / (DMSO-uRBC) x100 ([1]; PopD-D7, 6.17284 nM, biological replicate 2): 103.791
(av-uRBC) / (DMSO-uRBC) x100 ([1]; PopD-D7, 6.17284 nM, biological replicate 3): 87.2349
(av-uRBC) / (DMSO-uRBC) x100 ([1]; PopD-D7, 18.5185 nM, biological replicate 1): 94.5325
(av-uRBC) / (DMSO-uRBC) x100 ([1]; PopD-D7, 18.5185 nM, biological replicate 2): 103.019
(av-uRBC) / (DMSO-uRBC) x100 ([1]; PopD-D7, 18.5185 nM, biological replicate 3): 88.7968
(av-uRBC) / (DMSO-uRBC) x100 ([1]; PopD-D7, 55.5556 nM, biological replicate 1): 87.2483
(av-uRBC) / (DMSO-uRBC) x100 ([1]; PopD-D7, 55.5556 nM, biological replicate 2): 102.262
(av-uRBC) / (DMSO-uRBC) x100 ([1]; PopD-D7, 55.5556 nM, biological replicate 3): 77.42
(av-uRBC) / (DMSO-uRBC) x100 ([1]; PopD-D7, conc. 166.667 nM, Biological replicate 1 (2021-10-25)): 74.488
(av-uRBC) / (DMSO-uRBC) x100 ([1]; PopD-D7, conc. 166.667 nM, Biological replicate 2 (2021-11-03)): 97.8669
(av-uRBC) / (DMSO-uRBC) x100 ([1]; PopD-D7, conc. 166.667 nM, Biological replicate 3 (2021-11-11)): 58.6579
(av-uRBC) / (DMSO-uRBC) x100 ([1]; PopD-D7, conc. 500 nM, Biological replicate 1 (2021-10-25)): 40.3034
(av-uRBC) / (DMSO-uRBC) x100 ([1]; PopD-D7, conc. 500 nM, Biological replicate 2 (2021-11-03)): 75.4488
(av-uRBC) / (DMSO-uRBC) x100 ([1]; PopD-D7, conc. 500 nM, Biological replicate 3 (2021-11-11)): 31.855
Fold change compared to 3D7 ([1]; Supplementary Table 1, EC50 on PopD-D7 vs 3D7): > 278 fold
EC50 ([2]; Plasmodium falciparum, 72 h, Supplementary Table 1, PopE-F10 (N330K), 72 h, read-out: EC50): > 0.2 µM
resistance of the line compared with 3D7 ([2]; PopE-F10 (N330K), Fig 4B): highly resistant
(av-uRBC) / (DMSO-uRBC) x100 ([2]; PopE-F10, 0.0762079 nM, biological replicate 1): 96.1179
(av-uRBC) / (DMSO-uRBC) x100 ([2]; PopE-F10, 0.0762079 nM, biological replicate 2): 104.725
(av-uRBC) / (DMSO-uRBC) x100 ([2]; PopE-F10, 0.0762079 nM, biological replicate 3): 92.7129
(av-uRBC) / (DMSO-uRBC) x100 ([2]; PopE-F10, 0.228624 nM, biological replicate 1): 102.983
(av-uRBC) / (DMSO-uRBC) x100 ([2]; PopE-F10, 0.228624 nM, biological replicate 2): 105.368
(av-uRBC) / (DMSO-uRBC) x100 ([2]; PopE-F10, 0.228624 nM, biological replicate 3): 109.575
(av-uRBC) / (DMSO-uRBC) x100 ([2]; PopE-F10, 0.685871 nM, biological replicate 1): 97.996
(av-uRBC) / (DMSO-uRBC) x100 ([2]; PopE-F10, 0.685871 nM, biological replicate 2): 105.748
(av-uRBC) / (DMSO-uRBC) x100 ([2]; PopE-F10, 0.685871 nM, biological replicate 3): 95.4244
(av-uRBC) / (DMSO-uRBC) x100 ([2]; PopE-F10, 2.05761 nM, biological replicate 1): 96.037
(av-uRBC) / (DMSO-uRBC) x100 ([2]; PopE-F10, 2.05761 nM, biological replicate 2): 105.199
(av-uRBC) / (DMSO-uRBC) x100 ([2]; PopE-F10, 2.05761 nM, biological replicate 3): 105.366
(av-uRBC) / (DMSO-uRBC) x100 ([2]; PopE-F10, 6.17284 nM, biological replicate 1): 97.8882
(av-uRBC) / (DMSO-uRBC) x100 ([2]; PopE-F10, 6.17284 nM, biological replicate 2): 105.604
(av-uRBC) / (DMSO-uRBC) x100 ([2]; PopE-F10, 6.17284 nM, biological replicate 3): 97.9523
(av-uRBC) / (DMSO-uRBC) x100 ([2]; PopE-F10, 18.5185 nM, biological replicate 1): 96.9806
(av-uRBC) / (DMSO-uRBC) x100 ([2]; PopE-F10, 18.5185 nM, biological replicate 2): 104.615
(av-uRBC) / (DMSO-uRBC) x100 ([2]; PopE-F10, 18.5185 nM, biological replicate 3): 86.3579
(av-uRBC) / (DMSO-uRBC) x100 ([2]; PopE-F10, 55.5556 nM, biological replicate 1): 92.6042
(av-uRBC) / (DMSO-uRBC) x100 ([2]; PopE-F10, 55.5556 nM, biological replicate 2): 99.4928
(av-uRBC) / (DMSO-uRBC) x100 ([2]; PopE-F10, 55.5556 nM, biological replicate 3): 87.996
(av-uRBC) / (DMSO-uRBC) x100 ([2]; PopE-F10, 166.667 nM, biological replicate 1): 76.4288
(av-uRBC) / (DMSO-uRBC) x100 ([2]; PopE-F10, 166.667 nM, biological replicate 2): 88.6391
(av-uRBC) / (DMSO-uRBC) x100 ([2]; PopE-F10, 166.667 nM, biological replicate 3): 66.2195
(av-uRBC) / (DMSO-uRBC) x100 ([2]; PopE-F10, 500 nM, biological replicate 1): 33.5999
(av-uRBC) / (DMSO-uRBC) x100 ([2]; PopE-F10, 500 nM, biological replicate 2): 49.6703
(av-uRBC) / (DMSO-uRBC) x100 ([2]; PopE-F10, 500 nM, biological replicate 3): 27.1431
Fold change compared to 3D7 ([2]; Supplementary Table 1, EC50 on PopE-F10 vs 3D7): > 278 fold
CC50 (in vitro): 29 µM
